Assay results as given in EP0649656B1 (priority 1993, dated 1995).
Counter-ions that a name gives are not always drawn.

How the values were obtained:
[1] = tested on: virus Herpès simplex type I; test: In vivo cutaneous HSV I infection in guinea pigs, local application; design: species or system cobayes albinos (Dunkin-Hartley, IFFA-CREDO); details: for % moyen d'activité: moyenne entre le jour 5 et le jour 8; for infection herpétique cutanée / lésions cutanées: cobayes, application locale deux fois par jour pendant 3 jours, observations jours 5 à 8
Protocol: L'expérimentation a été réalisée en application locale sur des cobayes albinos (Dunkin-Hartley, IFFA-CREDO) auxquels on a préalablement inoculé par scarification le virus Herpès simplex type I. Sur ces scarifications, on a appliqué 0,1 ml d'une solution de virus HSV I titrant 10 000 DI50 pour 100 µl. Un flanc des animaux a servi de témoin. Le traitement a été effectué deux fois par jour pendant 3 jours, la première application ayant lieu 18 h après l'inoculation.
Les paramètres retenus pour déterminer la gravité des lésions cutanées sont : érythèmes, indurations, nombre et taille des vésicules, aires d'infection et présence ou absence de virus. Les observations sont réalisées 5, 6, 7 et 8 jours après l'inoculation.

[2] = cited from earlier work
[3] = tested on: infections herpétiques buccales et vulvaires; test: Human clinical use in buccal and vulvar herpetic infections; assay type: in vivo, humaine
[4] = tested on: virus HSV I; test: Virucidal activity by contact of the virus with the compounds, infra-cytotoxic doses; assay type: cell-based; details: doses infra-cytotoxiques, "-" = absence d'activité
Protocol: (§1) Dans un premier temps, on a donc déterminé l'activité virucide des différents composés testés par mise en contact du virus avec ces composés. Puis on a déterminé l'activité anti-virale des composés testés en inoculant le virus (sous la forme d'une suspension préalablement diluée dans du milieu de Hanks de manière à avoir une concentration en virus de 100 DE50 pour 10 µl de suspension) à une culture de fibroblastes de poumon embryonnaire (cellules commercialisées par la société Bio-Mérieux sous la référence MCR5), puis en traitant la culture cellulaire, inoculée par le virus, par les composés à tester, dilués également dans du milieu de Hanks. Les plaques de cultures cellulaires ont ensuite été observées au microscope inversé après 24h et 48h d'inoculation, ainsi que des cultures témoins non-inoculées et des virus témoins incubés sans composés. Les résultats sont rassemblés dans le tableau suivant: […]

[5] = tested on: zonas; test: Human clinical use in zona; assay type: in vivo; details: clinique humaine
[6] = tested on: virus HSV I; test: Anti-viral activity in HSV I-inoculated embryonic lung fibroblast culture; assay type: cell-based; details: HSV I 100 DE50 pour 10 µl, fibroblastes de poumon embryonnaire MCR5, observation 24h et 48h; "-" = absence d'activité
Protocol: as §1

Compound | % moyen d'activité ([1]; concentration 1,0 %) | solubilité dans l'alcool [2] | solubilité dans l'eau [2] | solubilité dans l'éther [2] | infection herpétique cutanée / lésions cutanées [1] | % moyen d'activité ([1]; concentration 0,2 %) | résultats en clinique humaine [3] | Concentrations minimales activité virucide [4] [µg/mL] | % moyen d'activité ([1]; concentration 2,0 %) | % moyen d'activité ([1]; concentration 4,0 %) | éruptions vésiculeuses et névralgies des territoires cutanés infectés [5] | Concentrations minimales activité anti-virale [6] [µg/mL]
Nc1nc2c(ncn2COCCO)c(=O)[nH]1 [Acyclovir, 2-amino-1,9-dihydro-9-[(2-hydroxyethoxy)methyl]-6H-purin-6-one] | 55,2% |  |  |  |  |  |  |  |  |  |  | 
Oc1cccc2cccnc12 [8-HQS, sulfate d'hydroxy-8 quinoléine] |  | faiblement soluble | soluble | insoluble | aucun effet | 0,0% |  |  |  |  |  | 
acriflavine [ACF] | 44,5% | partiellement soluble | soluble | pratiquement insoluble | réduisent significativement | 0,0% | résultats favorables | 1 | 81,5% | 95,2% | réduit significativement | 2
